Here are results for 3 compounds from US9018174B2, “Mouse model and treatment of hereditary inclusion body myopathy” (HIBM Research Group, Inc., priority 2008, dated 2015).

Positions count from the first letter of the chain named. Where “and” joins values, the source holds several entries; their conditions need not be identical. Identical values can stand only once. Entries after “also recorded” stand apart in the source; their conditions may differ.

One data set deals with cultured cells. The conditions noted are these: SiaLev or SiaNAz as downstream product; cited from earlier work.
Data set [1] has as its system GNE-M712T knock-in mice. Nature of the data set: Rescue of GNE-M712T knock-in mice by ManNAc feeding (survival of homozygous pups). It is filed as in vivo, mouse. On the procedure: GNE-M712T mice. GNE-M712T knock-in mice were generated by targeting the M712T (ATG>ACG) mutation exon 12 of the murine GNE gene (Uae1, Gne, GenBank NM_015828). The mutant mice were maintained in the C57BL/6J background. Animals were housed in ventilated cages in a temperature- and light-controlled environment (22° C., 30-70% humidity, 12-hour light/12-hour dark cycle) and were fed irradiated chow (Prolab 5P75 Isopro 3000; PMI Nutrition International) and water ad libitum. All euthanasia was performed with by CO2 followed by cervical dislocations. For Mendelian distribution studies, four pregnant mice E17-19 were euthanized and embryos were retrieved by cesarean section and euthanized by decapitation. All mouse procedures were performed in accordance with protocol G04-3 approved by the Institutional Animal […] and Use Committee of the National Human Genome Research Institute, National Institutes of Health Institutional Review Board.
(§1) ManNAc administration. Breeding pairs of 6-week-old +/− mice were divided into three groups. Group I consisted of 9 +/− breeding pairs who were administered untreated sterilized tap water. Group II consisted of one breeding pair of +/+ mice (wild-type control) and 6 +/− breeding pairs who were administered 1 mg/ml ManNAc (Sigma) supplemented water. Group III consisted of one +/+ breeding pair and 7 +/− breeding pairs who were administered 5 mg/ml ManNAc supplemented water. Water was changed twice weekly. Nursing females continued to be supplied with ManNAc. All mice were weaned from ManNAc at 21 days. Selected whole litters were sacrificed at age P2 or P6 for histological, genetic, biochemical or ultrastructural analysis.
Statistical analysis. Differences in genotype distribution (+/+: +/−-−/−) between an untreated control group and ManNAc treated group were tested by a two-tailed Fisher's exact test. To this end a 2×3 table was generated.

In data set [2] the test system is GNE-M712T knock-in mice. Nature of the data set: Tissue histology and electron microscopy of ManNAc treated -/- mice at P6. The data set is classed as in vivo, mouse. The note with it: age P6. How it is done:
Mouse Histology. Mouse tissues were collected, formalin-fixed and paraffin-embedded. Tissue sections (5 μm) were prepared and stained with hematoxylin and eosin following standard procedures (American Histolabs) or subjected to immunohostochemistry with a variety of primary antibodies. Formalin fixed tissues were deparafinized in Histoclear II (National Diagnostics), […] in a series of ethanol solutions. Antigen retrieval was performed for sections to be stained with the antibodies GNE/MNK (5 min boiling in citric acid based solution; Vector Laboratories) and dystrophin (boiling in 1 mM EDTA, according the manufacturer's protocol; AbCam). The sections were blocked (2% BSA, 10% donkey serum and 0.1% Triton X-100 in PBS) and incubated with primary antibodies (GNE/MNK 1:50; laminin 1:25; dystrophin 1:50) overnight at 4° C., followed by the secondary antibody Alexa 488 donkey-anti-rabbit (1:500 in blocking solution) (Invitrogen). The sections were mounted in Vectashield (Vector Laboratories) and viewed and digitally imaged with a Zeiss Axiovert 200M microscope (Carl Zeiss, Microimaging).
Electron Microscopy. […] The grids were viewed with a Philips 410 electron microscope (FEI Company) at 80 kV and images were recorded on Kodak SO-163 film (Kodak). […]

The target in data set [3] is T1, UDP-GlcNAC 2-epimerase (GNE) (Mus musculus, UniProt Q91WG8).
T1 construct: Mouse kidney and skeletal muscle (hindlimb quadriceps) tissues were homogenized; from tissue; host or cells: skeletal muscle and kidney of GNE-M712T knock-in mice (C57BL/6J), age P2
T1 sequence (Q91WG8 1-722): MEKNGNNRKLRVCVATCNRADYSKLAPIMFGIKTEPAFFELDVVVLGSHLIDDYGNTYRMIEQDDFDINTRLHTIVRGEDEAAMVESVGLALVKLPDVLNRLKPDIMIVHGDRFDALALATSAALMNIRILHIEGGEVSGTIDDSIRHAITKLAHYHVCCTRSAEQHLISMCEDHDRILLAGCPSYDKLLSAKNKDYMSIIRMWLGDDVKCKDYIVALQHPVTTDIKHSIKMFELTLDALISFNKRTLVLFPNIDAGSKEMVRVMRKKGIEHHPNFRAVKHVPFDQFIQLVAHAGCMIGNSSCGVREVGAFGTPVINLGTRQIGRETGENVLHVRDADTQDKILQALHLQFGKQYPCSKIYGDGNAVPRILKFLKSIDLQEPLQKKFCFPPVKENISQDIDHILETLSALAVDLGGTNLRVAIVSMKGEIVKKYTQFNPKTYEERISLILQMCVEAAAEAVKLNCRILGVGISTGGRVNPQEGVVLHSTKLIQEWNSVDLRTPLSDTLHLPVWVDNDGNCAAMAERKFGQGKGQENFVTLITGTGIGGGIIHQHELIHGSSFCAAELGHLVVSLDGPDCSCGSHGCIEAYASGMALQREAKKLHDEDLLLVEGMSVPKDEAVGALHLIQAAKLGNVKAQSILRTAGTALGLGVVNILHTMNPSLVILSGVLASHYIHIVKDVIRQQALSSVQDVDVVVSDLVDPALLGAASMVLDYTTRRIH
Nature of the data set: GNE/MNK epimerase enzymatic assay on tissue after ManNAc feeding. It is filed as in vivo. The conditions noted are these: +/+ mice, skeletal muscle, age P2, ManNAc treatment, n=3. How it is done:
as §1
(§2) GNE/MNK enzymatic assays. Mouse kidney and skeletal muscle (hindlimb quadriceps) tissues were homogenized and subjected to the GNE/MNK epimerase enzymatic assay as described^11,44. This assay is based on incubation with radiolabeled substrate (UDP-[^3H]GlcNAc; American Radiolabeled Chemicals), and detection of radiolabeled product ([^3H]ManNAc) upon separation of oligosaccharides by high pH anion-exchange chromatography with pulsed amperometric detection (Dionex).

Data set [4] concerns the target T2, UDP-GlcNAC 2-epimerase (GNE) (Mus musculus, UniProt Q91WG8, M712T).
T2 construct: Mouse kidney and skeletal muscle (hindlimb quadriceps) tissues were homogenized; from tissue; host or cells: skeletal muscle and kidney of GNE-M712T knock-in mice (C57BL/6J), age P2
T2 sequence (Q91WG8 1-722 M712T): T1 sequence (Q91WG8 1-722) with M712T
The data set is described as above. The conditions noted are these: -/- mice, skeletal muscle, age P2, ManNAc treatment, n=7; untreated -/- 19%. It is filed as in vivo. How it is done:
as §1, §2

Another data set addresses T3, GNE/MNK protein (Mus musculus, UniProt Q91WG8, M712T).
T3 construct: Mouse kidney and skeletal muscle (hindlimb quadriceps) tissues were homogenized; from tissue; host or cells: skeletal muscle and kidney of GNE-M712T knock-in mice (C57BL/6J), age P2
T3 sequence (Q91WG8 1-722 M712T): T1 sequence (Q91WG8 1-722) with M712T
The data set can be described thus: Immunoblot with anti-GNE/MNK antibodies of muscle and kidney extracts after ManNAc feeding. It is filed as in vivo. The note with it: ManNAc treated, referenced to β-actin, untreated -/- 78% decreased. From the text:
(§3) Antibodies. A rabbit polyclonal antibody was custom prepared against a GNE/MNK peptide comprising amino acids 588-607: […] (SEQ ID NO:24), coupled to keyhole limpet hemocyanine (KLH) and affinity-purified against the corresponding antigenic peptide (Covance). Other primary antibodies were commercially obtained: dystrophin (ab15277, AbCam), α-dystroglycan (IIH6, Upstate Biotechnology), laminin (L9393, Sigma-Aldrich), podocalyxin (PODX15-A, Alpha Diagnostic International), PSA-NCAM (MAB5324, Chemicon), and β-actin (AAN01, Cytoskeleton).
(§4) Western blotting. Mouse tissues (age P2) were extracted, homogenized in CelLytic buffer, consisting of a mild detergent, bicine buffer and 150 mM NaC (CelLytic) supplemented with protease inhibitors (Complete Minia, Roche). The lysates were sonicated and cleared by centrifugation (1000 g for 10 min), and the resulting supernatants were assayed for protein concentration (BCA protein assay, Pierce). For the neuraminidase enzymatic treatments, protein homogenates (25 μg) were incubated with 1 mU/μg of Neuraminidase (N-6514, Sigma) for 30 min at 37° C. Equal amounts of protein (25-50 μg) were electrophoresed on 4-12% Tris-Glycine gels (Novex, Invitrogen), and electroblotted onto 0.45 μm Hybond ECL nitrocellulose membranes (Amersham Pharmacia Biotech). […]
For orientation: A western blot detects proteins with antibodies after separation by electrophoresis.

The next data set has as its system PSA-NCAM. Nature of the data set: Immunoblot with PSA-NCAM antibodies of brain tissue after ManNAc feeding. It is filed as in vivo, mouse. The conditions noted are these: n=14 pre treatment, n=10 post treatment, p=0.08.
Source text: as §3, §4

In the next data set the test system is podocalyxin. Nature of the data set: Immunoblot of podocalyxin sialylation in kidney extracts after ManNAc feeding. The data set is classed as in vivo, mouse. The note with it: -/- kidneys.
Source text: as §3, §4

Data set [5] concerns GNE-deficient mouse embryonic stem cells. The conditions noted are these: growth medium supplemented with ManNAc; cited from earlier work.
The mark [6] stands for this setting: ManNAc 1 g/kg/day to +/- breeding pairs.

For the compound `CC(=O)CCC(=O)N[C@@H]1C(O)O[C@H](CO)[C@@H](O)[C@@H]1O` (some centres unmarked) [ManLev, N-levulinoylmannosamine], the “incorporation of sialic acid analogs into cell surface glycoconjugates” value in the data set with cultured cells is “resulted in incorporation of the downstream sialic acid analogs”.

For `CC(=O)N[C@@H]1C(O)O[C@H](CO)[C@@H](O)[C@@H]1O` (some centres unmarked) [ManNAc, N-acetylmannosamine], the “surviving homozygous mice beyond age P3” value in the data set on GNE-M712T knock-in mice [1] (1 mg/ml ManNAc in drinking water during matings of +/- mice, 51 offspring) is reported as “did not yield any surviving homozygous mice beyond age P3”. The “homozygous pups surviving beyond P3, % of total -/- pups” value in the data set on GNE-M712T knock-in mice [1] (5 mg ManNAc/ml in drinking water) came to 44%. The “number of homozygous pups that survived beyond P3” value in the data set on GNE-M712T knock-in mice [1] (5 mg ManNAc/ml in drinking water, out of 97 newborn pups) is listed as 11. Also, the “homozygous mice that survived past P21” value with GNE-M712T knock-in mice [1] (5 mg ManNAc/ml in drinking water, supplementation ceased at P21) is “Two”. Besides, in the data set with GNE-M712T knock-in mice [1] (setting [6]), the “-/- offspring that survived past P3” value is 42% and the “survivors past P3 that lived past weaning age P21” value came to 18%. Besides, in the data set on GNE-M712T knock-in mice [1] (administration of ManNAc to pregnant mothers), the “effect on survival of homozygous pups” value is reported as “remarkably salutary effect on survival of homozygous pups”. Also, in the data set with GNE-M712T knock-in mice [2], the “abnormalities in liver, heart and skeletal muscle tissues” value was “No abnormalities”; the kidney histology result is given as “mildly to remarkably improved histological features; also recorded: mildly to significantly improved kidney histology”. The “GNE activity in +/+ muscle, relative to untreated +/+ set at 100%” value in [3] is 114 (±10) % and ~114%. For the same compound, the “residual GNE activity in -/- muscle, relative to untreated +/+ set at 100%” value in data set [4] is 31 (±9) % and 31%. Also, the “decreased amount of GNE/MNK protein compared to +/+ littermates” value on GNE/MNK protein was 41 (±3) %. Further, in the data set on PSA-NCAM, the “increased PSA-NCAM signal compared to untreated -/- tissues” value is listed as 2-28%. Also, the podocalyxin sialylation status result in the data set on podocalyxin was “did not result in a statistically significant increase”. The “sialylation of hyposialylated cells” value in data set [5] was “became resialylated”.

`[N-]=[N+]=NCC(=O)N[C@@H]1C(O)O[C@H](CO)[C@@H](O)[C@@H]1O` (some centres unmarked) [ManNAz, N-azidoacetylmannosamine]: the “incorporation of sialic acid analogs into cell surface glycoconjugates” value in the data set on cultured cells was “resulted in incorporation of the downstream sialic acid analogs”.
